Values after ≈ are worked out from the molar mass of the structure shown. Active and inactive are the calls of the source. No cut-off for these calls is given here.
Legend:
Biotin carboxylase = Biotin carboxylase (Pseudomonas aeruginosa (strain ATCC 15692 / DSM 22644 / CIP 104116 / JCM14847 / LMG 12228 / 1C / PRS 101 / PAO1), UniProt P37798); experiment: Inhibition of recombinant N-terminal His-tagged Pseudomonas aeruginosa PAO1 biotin carboxylase expressed in Escherichia coli Rosetta(DE3) pLysS cells using biotin as substrate by spectroscopic analysis
Escherichia coli [1] = experiment: Antibacterial activity against Escherichia coli DM4100 harboring deltatolC mutant measured after 18 to 20 hrs by broth microdilution method; type: functional
Escherichia coli [2] = experiment: Antibacterial activity against Escherichia coli DM4100 harboring deltatolC mutant measured after 18 to 20 hrs in presence of permeabilizing agent PMBN by broth microdilution method; type: functional
Pseudomonas aeruginosa = experiment: Antibacterial activity against Pseudomonas aeruginosa PAO1 PAM1262 harboring MexAB-OprM/MexCD-OprJ/MexEF-OprN deletion mutant measured after 18 to 20 hrs by broth microdilution method; type: functional
Escherichia coli [3] = experiment: Induction of cytological changes in Escherichia coli ATCC 25922 assessed as formation of short chains of three to eight cells at 150 ug/ml measured after 2 hrs by FM 4-64/DAPI staining based microscopic analysis; type: functional, organism-based

Biotin carboxylase, sequence (P37798 whole entry): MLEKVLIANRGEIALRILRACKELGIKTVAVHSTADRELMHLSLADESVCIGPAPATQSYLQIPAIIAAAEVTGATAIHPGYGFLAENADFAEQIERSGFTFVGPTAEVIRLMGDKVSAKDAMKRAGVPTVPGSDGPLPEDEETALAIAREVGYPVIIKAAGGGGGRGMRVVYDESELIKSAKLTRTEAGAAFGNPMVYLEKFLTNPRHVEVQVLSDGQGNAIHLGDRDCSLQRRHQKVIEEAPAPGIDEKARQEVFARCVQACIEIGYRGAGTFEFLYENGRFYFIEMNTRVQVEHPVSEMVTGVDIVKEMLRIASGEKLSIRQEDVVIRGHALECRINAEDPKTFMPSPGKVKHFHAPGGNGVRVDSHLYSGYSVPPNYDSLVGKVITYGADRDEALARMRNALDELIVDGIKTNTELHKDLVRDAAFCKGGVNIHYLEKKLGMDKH

CC(C)COc1cccc(Cl)c1-c1cc2cnc(N)nc2nc1N
IC50 (Biotin carboxylase): 93 nM
MIC (Escherichia coli [1]): 0.25 µg/mL (≈ 0.727 µM)
MIC (Escherichia coli [2]): ≤ 0.06 µg/mL

Nc1ncc2cc(-c3c(Cl)cccc3Cl)c(N3C[C@@H]4[C@@H](N)[C@@H]4C3)nc2n1
IC50 (Biotin carboxylase): 33 nM
MIC (Escherichia coli [1]): 0.12 µg/mL (≈ 0.31 µM)
MIC (Escherichia coli [2]): 0.06 µg/mL

Nc1ncc2cc(-c3c(Cl)cccc3Cl)c(N)nc2n1
IC50 (Biotin carboxylase): 320 nM
MIC (Escherichia coli [1]): 0.5 µg/mL (≈ 1.63 µM)
MIC (Escherichia coli [2]): 0.25 µg/mL
MIC (Pseudomonas aeruginosa): 16 µg/mL (≈ 52.3 µM)

NC(=O)C1CCN(c2nc3nc(N)ncc3cc2-c2c(Cl)cccc2Cl)C1 (centres undefined)
IC50 (Biotin carboxylase): 170 nM
MIC (Escherichia coli [1]): 0.5 µg/mL (≈ 1.24 µM)
MIC (Escherichia coli [2]): 0.12 µg/mL

NCC1CCN(c2nc3nc(N)ncc3cc2-c2c(Cl)cccc2Cl)CC1
IC50 (Biotin carboxylase): 320 nM
MIC (Escherichia coli [1]): 1 µg/mL (≈ 2.48 µM)
MIC (Escherichia coli [2]): 0.5 µg/mL
MIC (Pseudomonas aeruginosa): 64 µg/mL (≈ 159 µM)

COc1ccc(-c2cccc(Cl)c2-c2cc3cnc(N)nc3nc2N)cn1
IC50 (Biotin carboxylase): 32 nM
MIC (Escherichia coli [1]): 0.06 µg/mL (≈ 0.158 µM)
MIC (Escherichia coli [2]): 0.03 µg/mL

NCC1(O)CCN(c2nc3nc(N)ncc3cc2-c2c(Cl)cccc2Cl)C1 (centres undefined)
IC50 (Biotin carboxylase): 83 nM
MIC (Escherichia coli [1]): 1 µg/mL (≈ 2.47 µM)
MIC (Escherichia coli [2]): 0.25 µg/mL
MIC (Pseudomonas aeruginosa): > 64 µg/mL

Nc1ncc2cc(-c3c(Cl)cccc3-c3ccncc3)c(N3C[C@@H]4[C@@H](N)[C@@H]4C3)nc2n1
IC50 (Biotin carboxylase): ≤ 15 nM
MIC (Escherichia coli [1]): 0.03 µg/mL (≈ 0.0698 µM)
MIC (Escherichia coli [2]): 0.015 µg/mL
MIC (Pseudomonas aeruginosa): 2 µg/mL (≈ 4.65 µM)

COc1ncc(-c2cccc(Cl)c2-c2cc3cnc(N)nc3nc2N2C[C@@H]3[C@@H](N)[C@@H]3C2)cc1F
IC50 (Biotin carboxylase): ≤ 15 nM
MIC (Escherichia coli [1]): 0.015 µg/mL (≈ 0.0314 µM)
MIC (Escherichia coli [2]): 0.008 µg/mL
MIC (Pseudomonas aeruginosa): 2 µg/mL (≈ 4.18 µM)

Cc1ncc(-c2cccc(Cl)c2-c2cc3cnc(N)nc3nc2N2C[C@@H]3[C@@H](N)[C@@H]3C2)s1
IC50 (Biotin carboxylase): ≤ 15 nM
MIC (Escherichia coli [1]): 0.008 µg/mL (≈ 0.0178 µM)
MIC (Escherichia coli [2]): 0.004 µg/mL
MIC (Pseudomonas aeruginosa): 1 µg/mL (≈ 2.22 µM)

Nc1ncc2cc(-c3ccccc3-c3cccnc3)c(N)nc2n1
IC50 (Biotin carboxylase): 130 nM
MIC (Escherichia coli [1]): 2 µg/mL (≈ 6.36 µM)
MIC (Escherichia coli [2]): 0.5 µg/mL
MIC (Pseudomonas aeruginosa): 16 µg/mL (≈ 50.9 µM)

NCC1(F)CCN(c2nc3nc(N)ncc3cc2-c2c(Cl)cccc2Cl)C1 (centres undefined)
IC50 (Biotin carboxylase): 440 nM
MIC (Escherichia coli [2]): 1 µg/mL

Nc1ncc2cc(-c3c(Cl)cccc3Cl)c(N3CCC(N)(CO)C3)nc2n1 (centres undefined)
IC50 (Biotin carboxylase): 190 nM
MIC (Escherichia coli [1]): 1 µg/mL (≈ 2.47 µM)
MIC (Escherichia coli [2]): 0.25 µg/mL

NCC1CCN(c2nc3nc(N)ncc3cc2-c2c(Cl)cccc2Cl)C1 (centres undefined)
IC50 (Biotin carboxylase): 64 nM
MIC (Escherichia coli [1]): 0.5 µg/mL (≈ 1.28 µM)
MIC (Escherichia coli [2]): 0.12 µg/mL
Activity (Escherichia coli [3]): Active

Nc1ncc2cc(-c3c(Cl)cccc3Cl)c(N3CCC(CO)C3)nc2n1 (centres undefined)
IC50 (Biotin carboxylase): 140 nM
MIC (Escherichia coli [1]): 0.25 µg/mL (≈ 0.641 µM)
MIC (Escherichia coli [2]): 0.12 µg/mL

Nc1ncc2cc(-c3ccccc3-c3ccccc3)c(N)nc2n1
IC50 (Biotin carboxylase): 79 nM
MIC (Escherichia coli [1]): 0.5 µg/mL (≈ 1.6 µM)
MIC (Escherichia coli [2]): 0.25 µg/mL

Nc1ncc2cc(-c3c(Cl)cccc3-c3cccnc3)c(N)nc2n1
IC50 (Biotin carboxylase): 36 nM
MIC (Escherichia coli [1]): 0.12 µg/mL (≈ 0.344 µM)
MIC (Escherichia coli [2]): 0.06 µg/mL
MIC (Pseudomonas aeruginosa): 4 µg/mL (≈ 11.5 µM)

Reference: ChEMBL document CHEMBL4406811, “Optimization and Mechanistic Characterization of Pyridopyrimidine Inhibitors of Bacterial Biotin Carboxylase” (J Med Chem, 2019)
